Common to all, as to assay type: cell-based
The target of one experiment is hKv1.3 (Homo sapiens, UniProt P22001). Nature of the experiment: cell-based. The settings on record: Kv1.3 (IWQ) IC50 (nM, Avg).
Experiment [1] has as its system IL-2 secretion from T cells in human whole blood. To be noted: read-out: WB (IL-2) IC50 (nM, Avg).
Experiment [2] deals with IFN-g secretion from T cells in human whole blood. The settings on record: read-out: WB (IFNg) IC50 (nM, Avg).

hKv1.3, sequence (P22001 whole entry): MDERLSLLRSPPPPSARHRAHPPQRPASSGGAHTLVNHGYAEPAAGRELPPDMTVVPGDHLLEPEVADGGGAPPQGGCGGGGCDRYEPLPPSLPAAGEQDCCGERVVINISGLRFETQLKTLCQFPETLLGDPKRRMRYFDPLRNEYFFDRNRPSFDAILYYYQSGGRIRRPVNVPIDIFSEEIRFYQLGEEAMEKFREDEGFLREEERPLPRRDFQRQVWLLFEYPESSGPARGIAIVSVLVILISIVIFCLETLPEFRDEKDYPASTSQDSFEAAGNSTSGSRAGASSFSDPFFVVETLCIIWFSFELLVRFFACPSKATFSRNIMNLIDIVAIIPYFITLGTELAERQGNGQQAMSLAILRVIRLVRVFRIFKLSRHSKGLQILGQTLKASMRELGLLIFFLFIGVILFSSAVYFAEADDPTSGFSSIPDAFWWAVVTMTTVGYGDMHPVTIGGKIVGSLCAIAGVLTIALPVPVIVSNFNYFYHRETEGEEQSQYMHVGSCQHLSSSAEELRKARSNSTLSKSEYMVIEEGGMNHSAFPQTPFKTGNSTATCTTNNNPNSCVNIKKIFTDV

Regarding `CC[C@H](C)[C@@H]1NC(=O)[C@@H](NC(=O)[C@H](CO)NC(=O)[C@@H](N)CCCNC(=N)N)CSSC[C@@H](C(N)=O)NC(=O)[C@H]([C@@H](C)O)NC(=O)CNC(=O)[C@@H]2CSSC[C@@H]3NC(=O)[C@H](CCCCN)NC(=O)[C@H](Cc4ccccc4)NC(=O)[C@H](C)NC(=O)[C@H]([C@@H](C)O)NC(=O)[C@H](CSSC[C@H](NC(=O)[C@H](Cc4ccccc4)NC(=O)[C@H](CO)NC(=O)[C@H](CC(C)C)NC(=O)[C@H](CCCNC(=N)N)NC(=O)[C@H](Cc4ccc(O)cc4)NC(=O)[C@H](CCCCN)NC(=O)[C@H](Cc4ccccc4)NC(=O)[C@H](CO)NC(=O)[C@H](Cc4c[nH]cn4)NC(=O)[C@H](CCCCN)NC3=O)C(=O)N[C@@H](CCCNC(=N)N)C(=O)N[C@@H](CCCCN)C(=O)N[C@@H]([C@@H](C)O)C(=O)N2)NC(=O)[C@H](CCCNC(=N)N)NC(=O)[C@H](CO)NC(=O)[C@H](CCCCN)NC(=O)[C@@H]2CCCN2C(=O)[C@H]([C@@H](C)CC)NC(=O)[C@H]([C@@H](C)O)NC(=O)[C@H](CC(=O)O)NC1=O` [[Lys16, Phe21]ShK-amide], the IC50 against hKv1.3 came out at 0.246 nM; in experiment [1] it was 1.47 nM; in experiment [2], 2.04 nM.

On to `CC[C@H](C)[C@@H]1NC(=O)[C@@H](NC(=O)[C@H](CO)NC(=O)[C@@H](N)CCCNC(=N)N)CSSC[C@@H](C(N)=O)NC(=O)[C@H]([C@@H](C)O)NC(=O)CNC(=O)[C@@H]2CSSC[C@@H]3NC(=O)[C@H](CCCCN)NC(=O)[C@H](Cc4ccccc4)NC(=O)[C@H](C)NC(=O)[C@H]([C@@H](C)O)NC(=O)[C@H](CSSC[C@H](NC(=O)[C@H](Cc4ccccc4)NC(=O)[C@H](CO)NC(=O)[C@H](CC(C)C)NC(=O)[C@H](CCCNC(=N)N)NC(=O)[C@H](Cc4ccc(O)cc4)NC(=O)[C@H](CCCCN)NC(=O)[C@H](CO)NC(=O)[C@H](CO)NC(=O)[C@H](Cc4c[nH]cn4)NC(=O)[C@H](CCCCN)NC3=O)C(=O)N[C@@H](CCCNC(=N)N)C(=O)N[C@@H](CCCCN)C(=O)N[C@@H]([C@@H](C)O)C(=O)N2)NC(=O)[C@H](CCCNC(=N)N)NC(=O)[C@H](CO)NC(=O)[C@H](CCCCN)NC(=O)[C@@H]2CCCN2C(=O)[C@H]([C@@H](C)CC)NC(=O)[C@H]([C@@H](C)O)NC(=O)[C@H](CC(=O)O)NC1=O` [[Lys16, Ser21]ShK-amide], for which the concentration for half-maximal inhibition (IC50) is 0.068 nM on hKv1.3, 1.45 nM in experiment [1] and 1.71 nM in experiment [2].

As to `CC[C@H](C)[C@@H]1NC(=O)[C@@H](NC(=O)[C@H](CO)NC(=O)[C@@H](N)CCCNC(=N)N)CSSC[C@@H](C(N)=O)NC(=O)[C@H]([C@@H](C)O)NC(=O)CNC(=O)[C@@H]2CSSC[C@@H]3NC(=O)[C@H](CCCCN)NC(=O)[C@H](Cc4ccccc4)NC(=O)[C@H](C)NC(=O)[C@H]([C@@H](C)O)NC(=O)[C@H](CSSC[C@H](NC(=O)[C@H](Cc4ccccc4)NC(=O)[C@H](CO)NC(=O)[C@H](CC(C)C)NC(=O)[C@H](CCCNC(=N)N)NC(=O)[C@H](Cc4ccc(O)cc4)NC(=O)[C@H](CCCCN)NC(=O)[C@H]([C@@H](C)O)NC(=O)[C@H](CO)NC(=O)[C@H](Cc4c[nH]cn4)NC(=O)[C@H](CCCCN)NC3=O)C(=O)N[C@@H](CCCNC(=N)N)C(=O)N[C@@H](CCCCN)C(=O)N[C@@H]([C@@H](C)O)C(=O)N2)NC(=O)[C@H](CCCNC(=N)N)NC(=O)[C@H](CO)NC(=O)[C@H](CCCCN)NC(=O)[C@@H]2CCCN2C(=O)[C@H]([C@@H](C)CC)NC(=O)[C@H]([C@@H](C)O)NC(=O)[C@H](CC(=O)O)NC1=O` [[Lys16, Thr21]ShK-amide], the IC50 on hKv1.3 amounted to 0.058 nM; in experiment [1], 1.55 nM; in experiment [2] it was 2.98 nM.

Turning to `CC[C@H](C)[C@@H]1NC(=O)[C@@H](NC(=O)[C@H](CO)NC(=O)[C@@H](N)CCCNC(=N)N)CSSC[C@@H](C(N)=O)NC(=O)[C@H]([C@@H](C)O)NC(=O)CNC(=O)[C@@H]2CSSC[C@@H]3NC(=O)[C@H](CCCCN)NC(=O)[C@H](Cc4ccccc4)NC(=O)[C@H](C)NC(=O)[C@H]([C@@H](C)O)NC(=O)[C@H](CSSC[C@H](NC(=O)[C@H](Cc4ccccc4)NC(=O)[C@H](CO)NC(=O)[C@H](CC(C)C)NC(=O)[C@H](CCCNC(=N)N)NC(=O)[C@H](Cc4ccc(O)cc4)NC(=O)[C@H](CCCCN)NC(=O)[C@H](Cc4c[nH]c5ccccc45)NC(=O)[C@H](CO)NC(=O)[C@H](Cc4c[nH]cn4)NC(=O)[C@H](CCCCN)NC3=O)C(=O)N[C@@H](CCCNC(=N)N)C(=O)N[C@@H](CCCCN)C(=O)N[C@@H]([C@@H](C)O)C(=O)N2)NC(=O)[C@H](CCCNC(=N)N)NC(=O)[C@H](CO)NC(=O)[C@H](CCCCN)NC(=O)[C@@H]2CCCN2C(=O)[C@H]([C@@H](C)CC)NC(=O)[C@H]([C@@H](C)O)NC(=O)[C@H](CC(=O)O)NC1=O` [[Lys16, Trp21]ShK-amide], the IC50 against hKv1.3 worked out at 0.782 nM; in experiment [1], 3.86 nM; in experiment [2] it was 3.19 nM.

Consider `CC[C@H](C)[C@@H]1NC(=O)[C@@H](NC(=O)[C@H](CO)NC(=O)[C@@H](N)CCCNC(=N)N)CSSC[C@@H](C(N)=O)NC(=O)[C@H]([C@@H](C)O)NC(=O)CNC(=O)[C@@H]2CSSC[C@@H]3NC(=O)[C@H](CCCCN)NC(=O)[C@H](Cc4ccccc4)NC(=O)[C@H](C)NC(=O)[C@H]([C@@H](C)O)NC(=O)[C@H](CSSC[C@H](NC(=O)[C@H](Cc4ccccc4)NC(=O)[C@H](CO)NC(=O)[C@H](CC(C)C)NC(=O)[C@H](CCCNC(=N)N)NC(=O)[C@H](Cc4ccc(O)cc4)NC(=O)[C@H](CCCCN)NC(=O)[C@H](Cc4ccc(O)cc4)NC(=O)[C@H](CO)NC(=O)[C@H](Cc4c[nH]cn4)NC(=O)[C@H](CCCCN)NC3=O)C(=O)N[C@@H](CCCNC(=N)N)C(=O)N[C@@H](CCCCN)C(=O)N[C@@H]([C@@H](C)O)C(=O)N2)NC(=O)[C@H](CCCNC(=N)N)NC(=O)[C@H](CO)NC(=O)[C@H](CCCCN)NC(=O)[C@@H]2CCCN2C(=O)[C@H]([C@@H](C)CC)NC(=O)[C@H]([C@@H](C)O)NC(=O)[C@H](CC(=O)O)NC1=O` [[Lys16, Tyr21]ShK-amide], for which the IC50 at hKv1.3 is 0.246 nM; in experiment [1], 2.83 nM; in experiment [2] it was 3.19 nM.

`CC[C@H](C)[C@@H]1NC(=O)[C@@H](NC(=O)[C@H](CO)NC(=O)[C@@H](N)CCCNC(=N)N)CSSC[C@@H](C(N)=O)NC(=O)[C@H]([C@@H](C)O)NC(=O)CNC(=O)[C@@H]2CSSC[C@@H]3NC(=O)[C@H](CCCCN)NC(=O)[C@H](Cc4ccccc4)NC(=O)[C@H](C)NC(=O)[C@H]([C@@H](C)O)NC(=O)[C@H](CSSC[C@H](NC(=O)[C@H](Cc4ccccc4)NC(=O)[C@H](CO)NC(=O)[C@H](CC(C)C)NC(=O)[C@H](CCCNC(=N)N)NC(=O)[C@H](Cc4ccc(O)cc4)NC(=O)[C@H](CCCCN)NC(=O)[C@H](C(C)C)NC(=O)[C@H](CO)NC(=O)[C@H](Cc4c[nH]cn4)NC(=O)[C@H](CCCCN)NC3=O)C(=O)N[C@@H](CCCNC(=N)N)C(=O)N[C@@H](CCCCN)C(=O)N[C@@H]([C@@H](C)O)C(=O)N2)NC(=O)[C@H](CCCNC(=N)N)NC(=O)[C@H](CO)NC(=O)[C@H](CCCCN)NC(=O)[C@@H]2CCCN2C(=O)[C@H]([C@@H](C)CC)NC(=O)[C@H]([C@@H](C)O)NC(=O)[C@H](CC(=O)O)NC1=O` [[Lys16, VaI21]ShK-amide]: the results for the half-maximal inhibitory concentration (IC50) (against hKv1.3; in experiment [1]; in experiment [2]) were 0.344 nM, 4.8 nM and 6.65 nM, respectively.

For the compound `CC[C@H](C)[C@@H]1NC(=O)[C@@H](NC(=O)[C@H](CO)NC(=O)[C@@H](N)CCCNC(=N)N)CSSC[C@@H](C(=O)O)NC(=O)[C@H]([C@@H](C)O)NC(=O)CNC(=O)[C@@H]2CSSC[C@@H]3NC(=O)[C@H](CCCCN)NC(=O)[C@H](Cc4ccccc4)NC(=O)[C@H](C)NC(=O)[C@H]([C@@H](C)O)NC(=O)[C@H](CSSC[C@H](NC(=O)[C@H](Cc4ccccc4)NC(=O)[C@H](CO)NC(=O)[C@H](CC(C)C)NC(=O)[C@H](CCCNC(=N)N)NC(=O)[C@H](Cc4ccc(O)cc4)NC(=O)[C@H](CCCCN)NC(=O)[C@H](C)NC(=O)[C@H](CO)NC(=O)[C@H](Cc4c[nH]cn4)NC(=O)[C@H](CCCCN)NC3=O)C(=O)N[C@@H](CCCNC(=N)N)C(=O)N[C@@H](CCCCN)C(=O)N[C@@H]([C@@H](C)O)C(=O)N2)NC(=O)[C@H](CCCNC(=N)N)NC(=O)[C@H](CO)NC(=O)[C@H](CCCCN)NC(=O)[C@@H]2CCCN2C(=O)[C@H]([C@@H](C)CC)NC(=O)[C@H]([C@@H](C)O)NC(=O)[C@H](CC(=O)O)NC1=O` [[Lys16,A1a21]ShK], the half-maximal inhibitory concentration (IC50) at hKv1.3 came to 0.076 nM; in experiment [1], 0.872 nM; in experiment [2], 1.33 nM.

On to `CC[C@H](C)[C@@H]1NC(=O)[C@@H](NC(=O)[C@H](CO)NC(=O)[C@@H](N)CCCNC(=N)N)CSSC[C@@H](C(=O)O)NC(=O)[C@H]([C@@H](C)O)NC(=O)CNC(=O)[C@@H]2CSSC[C@@H]3NC(=O)[C@H](CCCCN)NC(=O)[C@H](Cc4ccccc4)NC(=O)[C@H](C)NC(=O)[C@H]([C@@H](C)O)NC(=O)[C@H](CSSC[C@H](NC(=O)[C@H](Cc4ccccc4)NC(=O)[C@H](CO)NC(=O)[C@H](CC(C)C)NC(=O)[C@H](CCCNC(=N)N)NC(=O)[C@H](Cc4ccc(O)cc4)NC(=O)[C@H](CCCCN)NC(=O)[C@H](CCSC)NC(=O)[C@H](CO)NC(=O)[C@H](Cc4c[nH]cn4)NC(=O)[C@H](CCCNC(=N)N)NC3=O)C(=O)N[C@@H](CCCNC(=N)N)C(=O)N[C@@H](CCCCN)C(=O)N[C@@H]([C@@H](C)O)C(=O)N2)NC(=O)[C@H](CCCNC(=N)N)NC(=O)[C@H](CO)NC(=O)[C@H](CCCCN)NC(=O)[C@@H]2CCCN2C(=O)[C@H]([C@@H](C)CC)NC(=O)[C@H]([C@@H](C)O)NC(=O)[C@H](CC(=O)O)NC1=O` [[Lys16,Arg18]ShK], for which the results for the IC50 (against hKv1.3; in experiment [1]; in experiment [2]) were 0.425 nM, 0.077 nM and 0.097 nM, respectively.

What is called IC50 is the point on the concentration scale where inhibition reaches its midpoint.

The values are drawn from patent US20120121591A1 (priority 2009, published 2012).
